The values below come from US20070202487A1, “Assay for phospholipidosis” (Cytokinetics, Inc., A Delaware Corporation, priority 2006, published 2007).

Like-named read-outs stand apart in the source and are kept apart here.

Series [1] relates to hepatocytes. On the procedure:
As described further below, in certain embodiments, the number of bright and/or punctate regions in the lysosomal marker image is used as an indication of phospholipidosis.
An exemplary procedure for preparing hepatocyte cultures will now be described. Specifically, the procedure involves the use of primary rat hepatocytes as follows:
11. Twenty three thousand cells/well are plated in a 96 flat well plate pre-coated with collagen I (BD Biosciences, San Jose, Calif. or CellzDirect, Tucson, Ariz.). The plates are incubated at 37° C./5% CO2 for two hours. At the end of the two hour incubation, plating medium is aspirated and cold Hepatozyme medium containing 250 micrograms/ml of Matrigel (BD Biosciences) is added, and the plates are incubated overnight.
The following example is a procedure for fixing and staining primary rat hepatocytes to visualize nuclei, lysotracker, and Alexa 647 nm succinimidyl ester reagent (A647SE). A647SE is used to segment individual hepatocytes within an image. • 1) At 24 hr after compound addition to cells, 50 ul of Hepatozyme medium (prewarmed to 37° C.) containing 187.5 nM of lysotracker dye is added to each well. Plates are placed back to incubator for 30 min, then 150 μl of fix solution (8% paraformaldehyde, in 1× PBS) and incubate at room temperature for 30 min. • 2) Aspirate the fix solution, and add 350 μl of wash buffer (1× PBS, 0.02% Triton X-100) to each well. Aspirate and dispense wash buffer 2 times. • 3) Aspirate off the wash buffer, and add 100 ul per well of A647SE mix: 0.5 μg/ml A647SE (stock 10 mg/ml) and 1:1000 dilution of Hoechst 33342 (stock 5 mg/ml) in wash buffer. Incubate at room temperature for one hour in the dark. • 4) Aspirate the staining solution, and add 350 μl of wash buffer (1× PBS, […]) to each well. Aspirate and dispense wash buffer 2 times. Leave the last wash buffer in the well. • 5) Seal the plate and store at room temperature in the dark prior to imaging.
In certain embodiments, a stimulus response curve may be generated for a stimulus of interest. In certain embodiments, the stimulus response curve plots the feature or features used to characterize phospholipidosis (e.g., granularity or mean intensity) against concentrations of a stimulus.

The subject of series [2] is hepatocytes. In words: Cell death of hepatocytes treated with compound. Format: cell-based. The conditions noted are these: Rattus norvegicus, Hepatocyte, arrow in FIG. 5A.

As to `C[C@H](CCC(=O)NCCS(=O)(=O)O)[C@H]1CC[C@H]2[C@@H]3CC[C@@H]4C[C@H](O)CC[C@]4(C)[C@H]3CC[C@]12C` [Taurolithocholate, taurolithocholate], the “proportion of bright/punctate cells (LysoTracker images)” value in the series with hepatocytes [1] (at several concentrations below EC50 of cell death, FIG. 2B, versus DMSO control) is given as “decrease”.

`CN(C)CCCN1c2ccccc2Sc2ccc(Cl)cc21` [chlorpromazine]: in the series on hepatocytes [1], the “induction of phospholipidosis as concluded from the response curves” value is recorded as “induced phospholipidosis”, the “mean intensity of the LysoTracker marker (per-cell basis) versus concentration” value is listed as “increases”, the “proportion of bright/punctate cells (LysoTracker images)” value is “increase” and the “total granularity versus concentration” value is “spikes”. The IC50 in the series on hepatocytes [2] turned out to be 25 µM.

For orientation: IC50 means the concentration that inhibits the measured activity by half.
